Columns and labels:
Type in all cases: binding
LdtAb [1] = target: T1, LdtAb (Acinetobacter baumannii, UniProt A0A222A2P4); assay: LC-MS of acyl-enzyme formation; details: covalent, 2 μM enzyme, 200 μM antibiotic, PBS pH 7.4, 22 °C
LdtAb [2] = target: T1, LdtAb; assay: LC-MS of acyl-enzyme formation; details: covalent; 2 μM enzyme, 200 μM antibiotic; PBS pH 7.4; 22 °C
LdtAb [3] = target: T1, LdtAb; assay: acylation by reporter substrate; details: covalent; very slow acylation

SMILES | % acyl-enzyme after 18 h (LdtAb [1]) [%] | apparent acylation rate constant k2 (LdtAb [2]) [h⁻¹] | acylation by reporter substrate (data not shown) (LdtAb [3])
C[C@@H](O)[C@H]1C(=O)N2C(C(=O)O)=C(SCCN=CN)C[C@H]12 [imipenem] | 95 | – | –
C[C@@H](O)[C@H]1C(=O)N2C(C(=O)O)=C(S[C@@H]3CN[C@H](C(=O)N(C)C)C3)[C@H](C)[C@H]12 [meropenem] | 48 | – | –
C[C@@H](O)[C@H]1C(=O)N2C(C(=O)O)=C(S[C@@H]3CN[C@H](CNS(N)(=O)=O)C3)[C@H](C)[C@H]12 [doripenem] | 21 | – | –
C[C@@H](O)[C@H]1C(=O)N2C(C(=O)O)=C(S[C@@H]3CN[C@H](C(=O)Nc4cccc(C(=O)O)c4)C3)[C@H](C)[C@H]12 [ertapenem] | 97 | 0.22 ± 0.01 | –
O=C(Cc1cccs1)N[C@@H]1C(=O)N2C(C(=O)O)=C(/C=C/c3ccc([N+](=O)[O-])cc3[N+](=O)[O-])CS[C@H]12 [nitrocefin] | – | – | acylation of LdtAb by nitrocefin took more than six hours to reach completion

Reference: publication PMC9764404 (ACS infectious diseases, 2022)
